Experimental data as given in paper PMC6974622, “DeepMalaria: Artificial Intelligence Driven Discovery of Potent Antiplasmodials” (Frontiers in Pharmacology, 2020).
“Also recorded” adds a separate entry of the source.

Key:
[1] = tested on: multidrug resistant P. falciparum strain Dd2; test: SYBR Green I Plasmodium growth inhibition assay (fixed concentration screen and EC50); assay type: cell-based, Plasmodium falciparum; details: Plasmodium falciparum; Pf Dd2, 1 µM, 72 h; read-out: Inhibition One-point (%)
Procedure: P. falciparum cultures were maintained under standard culture conditions in RPMI 1640 medium supplemented with 25 mM HEPES, pH 7.4, 26 mM NaHCO3, 2% dextrose, 15 mg/L hypoxanthine, 25 mg/L gentamycin, and 0.5% Albumax II maintained at 37°C in 5% CO2 and 95% air. Initially, a fixed concentration phenotypic screening was performed against multidrug resistant P. falciparum strain Dd2 (resistant to chloroquine, pyrimethamine, and mefloquine) using a SYBR Green I assay ([Johnson et al., 2007]; [Vossen et al., 2010]). An EVO-150 robotic liquid handler (Tecan, Morrisville, NC) was used to aliquot compounds at a final concentration of 1 µM followed by addition of culture to 96-well plates (Greiner, Monroe, NC) at 1% parasitemia, 2% hematocrit. Plates were incubated for 72 h at 37°C in a humidified atmosphere 5% CO2/95% air prior to freezing. Plates were subsequently thawed and 1X SYBR Green I was added with lysis buffer (20 mM Tris-HCl, 0.08% saponin, 5 mM EDTA, 0.8% Triton X-100). After incubation at room temperature in dark for 1 h, the fluorescent emission was measured at excition and emission wavelengths of 485 nm and 530 nm, respectively, using a BioTek Synergy neo2 (Winooski, VT) plate reader. […] Curve fitting was performed using GraphPad Prism and EC50 value was determined for each compound.

[2] = tested on: human hepatoma cell line HepG2; test: MTS based cytotoxicity assay (counter-screen for selectivity); assay type: cell-based; details: 48 h
Procedure: Selectivity was determined by counter-screening against human hepatoma cell line HepG2 in a MTS (3-(4,5-Dimethylthiazol-2-yl)-5-(3-carboxymethoxyphenyl)-2-(4-sulfophenyl)-2H-tetrazolium) based cytotoxicity assay (CellTiter 96® Aqueous One, Promega, Madison, WI) ([Riss et al., 2004]). Briefly, microtiter plates were seeded with 1,500 cells per well in a 384 well plate and incubated for 24 h at 37°C in 5% CO2/95% air atmosphere. The next day, compounds were added at seven different serially diluted concentrations starting at 25 µM d incubated for additional 48 h at stated conditions. MTS solution was next added to each well, incubated for additional 3 h at 37°C, and absorbance was read at 490 nm using BioTek Synergy neo 2 plate reader. Untreated cells served as control. Curve fitting was performed using GraphPad Prism and EC50 value was determined.

P. falciparum Dd2 = test: Stage-specific activity assay (Giemsa smears, YOYO-1 flow cytometry); assay type: cell-based, Plasmodium falciparum; details: synchronized Dd2, compound at 3X EC50 added at 6, 18, 30, 42 hpi
Procedure: P. falciparum Dd2 cell line was synchronized using a combination of 5% sorbitol and magnetic column separation as described ([Roberts et al., 2016]). Cultures at 2% parasitemia and 2% hematocrit were added to microtiter plate wells and measurements began 6 h post-invasion (6 hpi). Hit compounds were added at 3X EC50 concentration at specified time points. Controls are DHA (3X EC50) and untreated cultures. Giemsa-stained thin smears were made for each time point and an aliquot of the culture was fixed for flow cytometric analysis using 0.04% glutaraldehyde in PBS. After fixing and aspirating, cells were permeabilized with 0.25% Triton-100 followed by treatment with RNase (0.05 mg/ml) for 3 h. Next, YOYO 1 (10.24 µM) fluorescent dye was added and samples were analyzed ([Bouillon et al., 2013]) using Beckman Coulter (Indianapolis, IN) CytoFlex S flowcytometer.

Pf Dd2 = test: Rate of killing determination; assay type: cell-based, Plasmodium falciparum; details: synchronized Dd2, exposure 6 or 12 h, parasitemia tracked for 6 days
Procedure: Pf Dd2 culture was synchronized as described ([Roberts et al., 2016]), plated into 24 well plates at 2% parasitemia and 2% hematocrit at 6 hpi. […] Each well was exposed to the inhibitor for either 6 or 12 h using dihydroartemisinin (DHA) (25 µM) and untreated culture as controls. After washing the compounds off, the media was changed twice a day. The parasitemia was tracked for 6 days after addition of compounds. Thin smears were stained with Giemsa, and parasitemia was counted using microscope.

Compound	inhibition at 1 µM [1] [%]	EC50 [2] [µM]	Stage specific activity (P. falciparum Dd2)	Rate of killing (Pf Dd2)
CC(C)C[C@@H](N)C(=O)N1CCC2(CCCCCc3ccccc3OCCN(C)C2=O)CC1 [DC-9236, CC(C)C[C@@H](N)C(=O)N1CCC2(CC1)CCCCCC1=C(OCCN(C)C2=O)C=CC=C1]	98	6.5	active in late Troph and early Schizont; also recorded: inhibits primarily the mature schizonts	higher elimination in the second life cycle; also recorded: inhibition in the second developmental cycle of Pf causing delayed death
CCC1C2=NC(Cc3ccccc3)=C(O2)N(Cc2ccccc2)Cc2cn(nn2)CCCCN1Cc1ccccc1OCCN(C)C (centres unmarked) [DC-9237, CCC1N(CC2=CC=CC=C2OCCN(C)C)CCCCN2C=C(CN(CC3=CC=CC=C3)C3=C(CC4=CC=CC=C4)N=C1O3)N=N2]	95	17	inhibits all asexual stages of Plasmodium falciparum; also recorded: inhibits all asexual blood stages of Dd2 including the early ring stage	fast-acting; also recorded: inhibited growth at all asexual stages after 6 h of exposure and parasite population did not resume growth even after 6 days
